Measurements from ChEMBL document CHEMBL2074311, “ATP-dependent para-aminohippurate transport by apical multidrug resistance protein MRP2” (Kidney Int, 2000).

What was measured:
[1] = biological target: T1, ATP-binding cassette sub-family C member 2 (Homo sapiens, UniProt Q92887); assay: TP_TRANSPORTER: inhibition of PAH uptake (PAH: 0.1uM) in membrane vesicles from MRP2-expressing HEK cells; assay type: functional, cell membranes, HEK293, Membrane vesicle
[2] = biological target: T1, ATP-binding cassette sub-family C member 2; assay: TP_TRANSPORTER: uptake in membrane vesicles from MRP2-expressing HEK cells; assay type: functional, cell membranes, Membrane vesicle; conditions: hek293

T1 sequence (Q92887 whole entry): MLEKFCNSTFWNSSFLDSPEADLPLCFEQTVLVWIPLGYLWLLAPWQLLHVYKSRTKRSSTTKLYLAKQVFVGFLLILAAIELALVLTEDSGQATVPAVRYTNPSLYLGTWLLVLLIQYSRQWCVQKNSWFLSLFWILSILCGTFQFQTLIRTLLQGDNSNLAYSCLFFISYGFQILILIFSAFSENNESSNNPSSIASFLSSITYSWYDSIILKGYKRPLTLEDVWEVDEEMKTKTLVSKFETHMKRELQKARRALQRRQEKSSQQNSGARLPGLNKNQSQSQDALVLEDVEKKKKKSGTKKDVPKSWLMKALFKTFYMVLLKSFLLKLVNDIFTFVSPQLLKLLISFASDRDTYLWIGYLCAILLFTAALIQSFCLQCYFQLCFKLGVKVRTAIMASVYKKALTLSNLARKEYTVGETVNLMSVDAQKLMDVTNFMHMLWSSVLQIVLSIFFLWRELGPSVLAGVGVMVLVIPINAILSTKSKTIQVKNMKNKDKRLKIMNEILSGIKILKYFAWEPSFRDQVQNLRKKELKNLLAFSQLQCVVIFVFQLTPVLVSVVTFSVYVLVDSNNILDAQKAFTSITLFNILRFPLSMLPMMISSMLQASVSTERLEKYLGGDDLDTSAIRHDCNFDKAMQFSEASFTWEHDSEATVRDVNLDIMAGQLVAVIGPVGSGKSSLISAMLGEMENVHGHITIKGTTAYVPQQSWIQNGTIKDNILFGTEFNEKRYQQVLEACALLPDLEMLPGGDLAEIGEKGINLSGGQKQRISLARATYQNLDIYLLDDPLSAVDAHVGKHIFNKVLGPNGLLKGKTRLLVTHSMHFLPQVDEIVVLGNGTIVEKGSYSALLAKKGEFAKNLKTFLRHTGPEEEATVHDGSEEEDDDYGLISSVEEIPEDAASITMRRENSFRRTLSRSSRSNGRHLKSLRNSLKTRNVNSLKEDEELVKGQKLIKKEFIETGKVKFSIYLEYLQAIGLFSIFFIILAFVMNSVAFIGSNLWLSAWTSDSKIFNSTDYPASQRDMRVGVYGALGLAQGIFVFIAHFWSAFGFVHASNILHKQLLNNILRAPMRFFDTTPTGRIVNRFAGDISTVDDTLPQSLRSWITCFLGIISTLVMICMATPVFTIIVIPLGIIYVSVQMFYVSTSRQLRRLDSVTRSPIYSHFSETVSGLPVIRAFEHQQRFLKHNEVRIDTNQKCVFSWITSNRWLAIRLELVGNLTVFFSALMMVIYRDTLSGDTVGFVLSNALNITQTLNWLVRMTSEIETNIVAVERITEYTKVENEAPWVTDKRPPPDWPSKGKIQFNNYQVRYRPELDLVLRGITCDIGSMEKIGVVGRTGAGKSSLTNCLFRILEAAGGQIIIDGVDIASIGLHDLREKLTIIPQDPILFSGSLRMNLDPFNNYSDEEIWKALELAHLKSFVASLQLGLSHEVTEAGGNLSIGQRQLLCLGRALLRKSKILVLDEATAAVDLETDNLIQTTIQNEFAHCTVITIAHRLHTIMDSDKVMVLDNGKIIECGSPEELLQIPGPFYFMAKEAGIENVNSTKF

SMILES | IC50 [1] [µM] | Activity [2]
CCCCC/C=C\C\C=C/C=C/C=C/[C@@H](SC[C@@H](NC(=O)CC[C@H](N)C(=O)O)C(=O)NCC(=O)O)[C@@H](O)CCCC(=O)O [LEUKOTRIEN C4] | 3.3 | 
CN(C)C(=O)CCSC(SCCC(=O)O)c1cccc(/C=C/c2ccc3ccc(Cl)cc3n2)c1 (centres undefined) [MK-571] | 4 | 
C[C@@H]1Cc2c(Cl)cc(C(=O)N[C@@H](Cc3ccccc3)C(=O)O)c(O)c2C(=O)O1 [3R14S-OCHRATOXIN A] | 58 | substrate [+]
